Experimental data published in US7402548B2, “Benzoxazole compounds, process for producing the same and herbicides” (Kyoyu Agri Co., Ltd., priority 2000, dated 2008).

Tests used:
corn [1] = assay: Soil treatment test for upland field; assay type: in vivo; parameters: key: 0 = normal development, 5 = all killed; conditions: 500 g/ha, 3 weeks, glass house 25° C.
Protocol: (§1) The herbicidal effects are evaluated according to the following 6 ranks as compared with non-treated district. (0: normal development, 1: Less damaged, 2: Slightly damaged, 3: Moderately damaged, 4: Severely damaged, 5: All killed). Incidentally, “-” in the column means not investigated.
(§2) Wagner pots, each having an area of 1/5000 are, were packed with Ube soil (alluvial soil), and then each seed of corn, soybean, cotton, wheat, solgum, sugar beat, Large crabgrass, barnyard grass, green foxtail, blackgrass, annual bluegrass, common lambsquarters, livid amaranth, velvetleaf, morning glory, common Cocklebur (Xanthium strumarium) and sicklepod (Cassia obtusifolia) were planted and covered with soil.
(§3) Each wettable powder of the desired compounds (I) shown in Tables 1 to 21, 24, 25, 28 and 29 prepared in accordance with Example 2 was diluted with water containing a surfactant (0.05%) and uniformly sprayed on the surface of each soil so that an effective concentration of the compound (I) in each herbicide became 500 g/ha.
(§4) These plants were controlled in a glass house at an average temperature of 25° C. for 3 weeks, and then herbicidal effects thereof were investigated.
(§5) The herbicidal effects were evaluated according to the evaluation method described in the above (1).

solgum [2] = assay: Soil treatment test for upland field; assay type: in vivo; parameters: key: 0 = normal development, 5 = all killed; conditions: 500 g/ha, 3 weeks, glass house 25° C.
Protocol: as §1, §2, §3, §4, §5

sugar beat [3] = assay: Soil treatment test for upland field; assay type: in vivo; parameters: key: 0 = normal development, 5 = all killed; conditions: 500 g/ha, 3 weeks, glass house 25° C.
Protocol: as §1, §2, §3, §4, §5

wheat [4] = assay: Soil treatment test for upland field; assay type: in vivo; parameters: key: 0 = normal development, 5 = all killed; conditions: 500 g/ha, 3 weeks, glass house 25° C.
Protocol: as §1, §2, §3, §4, §5

Large crabgrass [5] = assay: Soil treatment test for upland field; assay type: in vivo, Digitaria adscendens; parameters: key: 0 = normal development, 5 = all killed; conditions: 500 g/ha, 3 weeks, glass house 25° C.
Protocol: as §1, §2, §3, §4, §5

barnyard grass = assay: Soil treatment test for upland field; assay type: in vivo, Eschinochloa crusgalli; parameters: key: 0 = normal development, 5 = all killed; conditions: 500 g/ha, 3 weeks, glass house 25° C.
Protocol: as §1, §2, §3, §4, §5

green foxtail [6] = assay: Soil treatment test for upland field; assay type: in vivo, Setaria viridis; parameters: key: 0 = normal development, 5 = all killed; conditions: 500 g/ha, 3 weeks, glass house 25° C.
Protocol: as §1, §2, §3, §4, §5

blackgrass [7] = assay: Soil treatment test for upland field; assay type: in vivo, Alopecurus aegualis; parameters: key: 0 = normal development, 5 = all killed; conditions: 500 g/ha, 3 weeks, glass house 25° C.
Protocol: as §1, §2, §3, §4, §5

annual bluegrass [8] = assay: Soil treatment test for upland field; assay type: in vivo, Poa annua; parameters: key: 0 = normal development, 5 = all killed; conditions: 500 g/ha, 3 weeks, glass house 25° C.
Protocol: as §1, §2, §3, §4, §5

common lambsquarters [9] = assay: Soil treatment test for upland field; assay type: in vivo, Chenopodium album; parameters: key: 0 = normal development, 5 = all killed; conditions: 500 g/ha, 3 weeks, glass house 25° C.
Protocol: as §1, §2, §3, §4, §5

livid amaranth [10] = assay: Soil treatment test for upland field; assay type: in vivo, Amaranthus lividus; parameters: key: 0 = normal development, 5 = all killed; conditions: 500 g/ha, 3 weeks, glass house 25° C.
Protocol: as §1, §2, §3, §4, §5

velvetleaf [11] = assay: Soil treatment test for upland field; assay type: in vivo, Abutilon theophrasti; parameters: key: 0 = normal development, 5 = all killed; conditions: 500 g/ha, 3 weeks, glass house 25° C.
Protocol: as §1, §2, §3, §4, §5

morning glory [12] = assay: Soil treatment test for upland field; assay type: in vivo, Ipomoea spps.; parameters: key: 0 = normal development, 5 = all killed; conditions: 500 g/ha, 3 weeks, glass house 25° C.
Protocol: as §1, §2, §3, §4, §5

corn [13] = assay: Foliar spread test for upland field; assay type: in vivo; parameters: key: 0 = normal development, 5 = all killed (6 ranks vs. untreated); conditions: foliar spray, 500 ppm, 3 weeks, glass house 25° C.
Protocol: as §1
(§6) Wagner pots, each having an area of 1/5000 are, were packed with volcanic ash soil and then each seed of corn, soybean, cotton, wheat, solgum, sugar beat, Large crabgrass, barnyardgrjass, green foxtail, blackgrass, annual bluegrass, common lambsquarters, livid amaranth, velvetleaf, morning glory, Xanthium pensylvanicum and Cassia obtusifolia was planted, covered with soil and grown in a glass house at an average temperature of 25° C. for about 2 weeks.
(§7) Each wettable powder of the desired compounds (I) shown in Tables 1 to 21, 24, 25, 28 and 29 prepared in accordance with Example 2 was diluted to 500 ppm with water containing a surfactant (0.5%) and then uniformly sprayed on the above respective plants.
(§8) After these plants were controlled in a glass house at an average temperature of 25° C. for 3 weeks, the herbicidal effects thereof were investigated.
as §5

cotton = assay: Foliar spread test for upland field; assay type: in vivo; parameters: key: 0 = normal development, 5 = all killed (6 ranks vs. untreated); conditions: foliar spray, 500 ppm, 3 weeks, glass house 25° C.
Protocol: as §1, §6, §7, §8, §5

solgum [14] = assay: Foliar spread test for upland field; assay type: in vivo; parameters: key: 0 = normal development, 5 = all killed (6 ranks vs. untreated); conditions: foliar spray, 500 ppm, 3 weeks, glass house 25° C.
Protocol: as §1, §6, §7, §8, §5

soybean = assay: Foliar spread test for upland field; assay type: in vivo; parameters: key: 0 = normal development, 5 = all killed (6 ranks vs. untreated); conditions: foliar spray, 500 ppm, 3 weeks, glass house 25° C.
Protocol: as §1, §6, §7, §8, §5

sugar beat [15] = assay: Foliar spread test for upland field; assay type: in vivo; parameters: key: 0 = normal development, 5 = all killed (6 ranks vs. untreated); conditions: foliar spray, 500 ppm, 3 weeks, glass house 25° C.
Protocol: as §1, §6, §7, §8, §5

wheat [16] = assay: Foliar spread test for upland field; assay type: in vivo; parameters: key: 0 = normal development, 5 = all killed (6 ranks vs. untreated); conditions: foliar spray, 500 ppm, 3 weeks, glass house 25° C.
Protocol: as §1, §6, §7, §8, §5

Large crabgrass [17] = assay: Foliar spread test for upland field; assay type: in vivo, Digitaria adscendens; parameters: key: 0 = normal development, 5 = all killed (6 ranks vs. untreated); conditions: foliar spray, 500 ppm, 3 weeks, glass house 25° C.
Protocol: as §1, §6, §7, §8, §5

barnyardgrjass = assay: Foliar spread test for upland field; assay type: in vivo, Eschinochloa crusgalli; parameters: key: 0 = normal development, 5 = all killed (6 ranks vs. untreated); conditions: foliar spray, 500 ppm, 3 weeks, glass house 25° C.
Protocol: as §1, §6, §7, §8, §5

green foxtail [18] = assay: Foliar spread test for upland field; assay type: in vivo, Setaria viridis; parameters: key: 0 = normal development, 5 = all killed (6 ranks vs. untreated); conditions: foliar spray, 500 ppm, 3 weeks, glass house 25° C.
Protocol: as §1, §6, §7, §8, §5

blackgrass [19] = assay: Foliar spread test for upland field; assay type: in vivo, Alopecurus aegualis; parameters: key: 0 = normal development, 5 = all killed (6 ranks vs. untreated); conditions: foliar spray, 500 ppm, 3 weeks, glass house 25° C.
Protocol: as §1, §6, §7, §8, §5

annual bluegrass [20] = assay: Foliar spread test for upland field; assay type: in vivo, Poa annua; parameters: key: 0 = normal development, 5 = all killed (6 ranks vs. untreated); conditions: foliar spray, 500 ppm, 3 weeks, glass house 25° C.
Protocol: as §1, §6, §7, §8, §5

common lambsquarters [21] = assay: Foliar spread test for upland field; assay type: in vivo, Chenopodium album; parameters: key: 0 = normal development, 5 = all killed (6 ranks vs. untreated); conditions: foliar spray, 500 ppm, 3 weeks, glass house 25° C.
Protocol: as §1, §6, §7, §8, §5

livid amaranth [22] = assay: Foliar spread test for upland field; assay type: in vivo, Amaranthus lividus; parameters: key: 0 = normal development, 5 = all killed (6 ranks vs. untreated); conditions: foliar spray, 500 ppm, 3 weeks, glass house 25° C.
Protocol: as §1, §6, §7, §8, §5

velvetleaf [23] = assay: Foliar spread test for upland field; assay type: in vivo, Abutilon theophrasti; parameters: key: 0 = normal development, 5 = all killed (6 ranks vs. untreated); conditions: foliar spray, 500 ppm, 3 weeks, glass house 25° C.
Protocol: as §1, §6, §7, §8, §5

morning glory [24] = assay: Foliar spread test for upland field; assay type: in vivo, Ipomoea spps.; parameters: key: 0 = normal development, 5 = all killed (6 ranks vs. untreated); conditions: foliar spray, 500 ppm, 3 weeks, glass house 25° C.
Protocol: as §1, §6, §7, §8, §5

Structure (SMILES) | Effects Corn (corn [1]) | Effects Solgum (solgum [2]) | Effects Wheat (wheat [4]) | Effects Large crabgrass (Large crabgrass [5]) | Effects Barnyardgrass (barnyard grass) | Effects Green foxtail (green foxtail [6]) | Effects Blackgrass (blackgrass [7]) | Effects Annual bluegrass (annual bluegrass [8]) | Effects Common lambsquarters (common lambsquarters [9]) | Effects Livid amaranth (livid amaranth [10]) | Effects Morning glory (morning glory [12]) | Effects Corn (corn [13]) | Effects Sotton (cotton) | Effects Solgum (solgum [14]) | Effects Soybean (soybean) | Effects Sugar beat (sugar beat [15]) | Effects Wheat (wheat [16]) | Effects Large crabgrass (Large crabgrass [17]) | Effects Barnyardgrass (barnyardgrjass) | Effects Green foxtail (green foxtail [18]) | other results
CCC(=Cc1cccc(C(F)(F)F)c1)c1nc2ccc([N+](=O)[O-])cc2o1 [I-c-15] | 1 | 1 | 1 | 5 | 4 | 5 | 5 | 5 | 5 | 5 | 2 | 2 | 3 | 2 | 5 | 4 | 2 | 4 | 3 | 4 | Effects Sugar beat (sugar beat [3]): 2; Effects Velvetleaf (velvetleaf [11]): 2; Effects Blackgrass (blackgrass [19]): 3; Effects Annual bluegrass (annual bluegrass [20]): 4; Effects Common lambsquarters (common lambsquarters [21]): 5; Effects Livid amaranth (livid amaranth [22]): 5; Effects Velvetleaf (velvetleaf [23]): 3; Effects Morning glory (morning glory [24]): 5
CC(=Cc1cccc(C(F)(F)F)c1)c1nc2cc(F)ccc2o1 [I-c-40] | 0 | 2 | 0 | 5 | 5 | 5 | 4 | 5 | 5 | 5 | 3 | 2 | 1 | 1 | 4 | 4 | 1 | 3 | 1 | 2 | Effects Sugar beat (sugar beat [3]): 1; Effects Blackgrass (blackgrass [19]): 2; Effects Annual bluegrass (annual bluegrass [20]): 2; Effects Common lambsquarters (common lambsquarters [21]): 4; Effects Livid amaranth (livid amaranth [22]): 4; Effects Velvetleaf (velvetleaf [23]): 1; Effects Morning glory (morning glory [24]): 3
CCCC(=Cc1cccc(C(F)(F)F)c1)c1nc2cc(F)ccc2o1 [I-c-44] | 2 | 3 | 2 | 5 | 5 | 5 | 5 | 5 | 5 | 5 | 2 | 2 | 3 | 2 | 5 | 3 | 2 | 4 | 2 | 4 | Effects Sugar beat (sugar beat [3]): 5; Effects Velvetleaf (velvetleaf [11]): 3; Effects Blackgrass (blackgrass [19]): 3; Effects Annual bluegrass (annual bluegrass [20]): 4; Effects Common lambsquarters (common lambsquarters [21]): 5; Effects Livid amaranth (livid amaranth [22]): 5; Effects Velvetleaf (velvetleaf [23]): 2; Effects Morning glory (morning glory [24]): 5
CC(=Cc1cccc(C(F)(F)F)c1)c1nc2cc(Cl)ccc2o1 [I-c-53] | 1 | 0 | 1 | 5 | 5 | 5 | 5 | 5 | 5 | 5 | 2 | 3 | 3 | 1 | 4 | 5 | 1 | 4 | 1 | 5 | Effects Sugar beat (sugar beat [3]): 5; Effects Velvetleaf (velvetleaf [11]): 1; Effects Blackgrass (blackgrass [19]): 4; Effects Annual bluegrass (annual bluegrass [20]): 4; Effects Common lambsquarters (common lambsquarters [21]): 5; Effects Livid amaranth (livid amaranth [22]): 5; Effects Velvetleaf (velvetleaf [23]): 3; Effects Morning glory (morning glory [24]): 5
CCCC(=Cc1cccc(C(F)(F)F)c1)c1nc2cc(Cl)ccc2o1 [I-c-57] | 2 | 2 | 2 | 5 | 5 | 5 | 5 | 5 | 5 | 5 | 3 | 2 | 4 | 2 | 5 | 3 | 2 | 4 | 3 | 5 | Effects Velvetleaf (velvetleaf [11]): 5; Effects Blackgrass (blackgrass [19]): 3; Effects Annual bluegrass (annual bluegrass [20]): 4; Effects Common lambsquarters (common lambsquarters [21]): 5; Effects Livid amaranth (livid amaranth [22]): 4; Effects Velvetleaf (velvetleaf [23]): 3; Effects Morning glory (morning glory [24]): 5
CCC(=Cc1cccc(C(F)(F)F)c1)c1nc2cc(Br)ccc2o1 [I-c-67] | 2 | 5 | 1 | 5 | 5 | 5 | 5 | 5 | 5 | 5 | 4 | 3 | 5 | 3 | 5 | 4 | 2 | 4 | 3 | 4 | Effects Sugar beat (sugar beat [3]): 5; Effects Velvetleaf (velvetleaf [11]): 5; Effects Blackgrass (blackgrass [19]): 4; Effects Annual bluegrass (annual bluegrass [20]): 4; Effects Common lambsquarters (common lambsquarters [21]): 5; Effects Livid amaranth (livid amaranth [22]): 5; Effects Velvetleaf (velvetleaf [23]): 4; Effects Morning glory (morning glory [24]): 5
